This test relates to 885724-159-R-J1-PDC spheroids viability. The test is described as follows: Anticancer human tumor 885724-159-R-J1-PDC patient-derived pancreatic adenocarcinoma cell line growth inhibition [TAK]. As to conditions: spheroids with HUVEC and MSC; for viability, T/C: stronger effect = lower value; for IC50: curve of compound. A digest of the protocol:
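Tumor cells were grown as spheroids with HUVEC and hMSC (60:25:15) and treated with targeted agents combined with TAK-243 or ipatasertib. Drugs were tested in half-log steps down from near the clinical Cmax, or from 10 microM where Cmax was unknown.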

Values joined by “and” are separate entries in the source; they are usually repeats but may differ in a detail not shown here. Identical values can stand only once.
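Further: spheroids exposed to drugs for seven days.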
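Wherever viability, T/C is given: 100% = DMSO vehicle control viability.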

As a reminder, the viability, T/C is the ratio of treated to control. By IC50 is commonly meant the point on the concentration scale where inhibition reaches its midpoint. Take `Cn1cnc2c(F)c(Nc3ccc(Br)cc3Cl)c(C(=O)NOCCO)cc21`: the half-inhibitory concentration (IC50) amounted to 40.9 nM. Also, the viability, T/C (compound 0.00949 µM) was 70.7% and 70.3%. Also, where the note is “compound 0.03 µM”, the viability, T/C was 53.1% and 54.5%. For the same compound, the viability, T/C (compound 0.0949 µM) is 38.9% and 38.3%. Besides, under “compound 0.3 µM”, the viability, T/C is 34.6% and 32.9%. Moreover, the viability, T/C (compound 0.949 µM) was 28.6% and 27.2%. Moreover, for the setting “compound 3 µM”, the viability, T/C was 21.2% and 21.8%.

Take `CC(C)(C)c1nc(-c2cccc(NS(=O)(=O)c3c(F)cccc3F)c2F)c(-c2ccnc(N)n2)s1`: the IC50 was > 10000 nM. Moreover, the viability, T/C (compound 0.0316 µM) was 179% and 172%. Also, the viability, T/C (compound 0.1 µM) is 262% and 233%. Further, under “compound 0.316 µM”, the viability, T/C was 321% and 254%. The viability, T/C (compound 1 µM) is 332% and 269%. For the same compound, the viability, T/C (compound 3.16 µM) was 308% and 241%. Also, for the setting “compound 10 µM”, the viability, T/C was 200% and 176%.

These data come from PubChem BioAssay AID2060348 (Molecular Pharmacology Branch, DTP, NCI, 2025).
